In patent US20240368173A1, “TRICYCLIC GPR65 MODULATORS” (PATHIOS THERAPEUTICS LIMITED, priority 2021, published 2024) one finds IC50 data, which are given here for 24 compounds.

The assay addresses human recombinant GPR65 (Homo sapiens, UniProt Q8IYL9). The experiment in a line: Human GPR65 cAMP HTRF antagonist assay. Format: cell-based. A digest of the protocol:
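Antagonism measured as suppression of the cAMP rise when pH is dropped to 7.2 (control wells pH 7.9) in 1321N1 cells stably carrying human GPR65. Cells in KRH with 1 mM IBMX and 200 μM EDTA saw compound 30 min, then acid stimulation 30 min; HTRF cAMP detection, normalised, 4-parameter logistic IC50.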

Sequence of human recombinant GPR65 (Q8IYL9 whole entry): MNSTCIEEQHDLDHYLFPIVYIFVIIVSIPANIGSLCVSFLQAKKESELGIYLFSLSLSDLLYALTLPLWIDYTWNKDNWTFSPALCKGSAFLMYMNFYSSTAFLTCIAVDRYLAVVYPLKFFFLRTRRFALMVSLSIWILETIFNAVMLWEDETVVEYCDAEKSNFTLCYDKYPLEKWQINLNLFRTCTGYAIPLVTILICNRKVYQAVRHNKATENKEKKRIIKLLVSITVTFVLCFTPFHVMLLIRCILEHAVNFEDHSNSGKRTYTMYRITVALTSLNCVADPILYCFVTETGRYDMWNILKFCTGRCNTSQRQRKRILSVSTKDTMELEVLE

As for `O=C(Nc1cc(Cl)c(-c2ccc(C(F)(F)F)nc2)cc1F)N1[C@H]2CC[C@@H]1c1n[nH]c(=O)cc1C2` [Compound 313, (6S,9R)-N-(5-Chloro-2-fluoro-4-(6-(trifluoromethyl)pyridin-3-yl)phenyl)-3-oxo-3,5,6,7,8,9-hexahydro-2H-6,9-epiminocyclohepta[c]pyridazine-10-carboxamide], the IC50 is less than 500 nM.

Regarding `O=C(Nc1cc(Cl)c(-c2ccc3nonc3n2)cc1F)N1[C@H]2CC[C@@H]1c1n[nH]c(=O)cc1C2` [Compound 314, (6S,9R)-N-(4-([1,2,5]Oxadiazolo[3,4-b]pyridin-5-yl)-5-chloro-2-fluorophenyl)-3-oxo-3,5,6,7,8,9-hexahydro-2H-6,9-epiminocyclohepta[c]pyridazine-10-carboxamide], the IC50 was less than 500 nM.

For `O=C(Nc1cc(Cl)c(-c2ccc(OC(F)F)nc2)cc1F)N1[C@H]2CC[C@@H]1c1n[nH]c(=O)cc1C2` [Compound 315, (6S,9R)-N-(5-Chloro-4-(6-(difluoromethoxy)pyridin-3-yl)-2-fluorophenyl)-3-oxo-3,5,6,7,8,9-hexahydro-2H-6,9-epiminocyclohepta[c]pyridazine-10-carboxamide], the IC50 is less than 500 nM.

As for `O=C(Nc1cc(Cl)c(COc2cncc(F)c2)cc1F)N1[C@H]2CC[C@@H]1c1n[nH]c(=O)cc1C2` [Compound 316, (6S,9R)-N-(5-Chloro-2-fluoro-4-(((5-fluoropyridin-3-yl)oxy)methyl)phenyl)-3-oxo-3,5,6,7,8,9-hexahydro-2H-6,9-epiminocyclohepta[c]pyridazine-10-carboxamide], the IC50 is less than 500 nM.

For `CO[C@H]1C[C@H](Oc2ccc(-c3cc(F)c(NC(=O)N4[C@H]5CC[C@@H]4c4c[nH]c(=O)cc4C5)cc3Cl)cn2)C1` [Compound 317, (6S,9R)-N-(5-Chloro-2-fluoro-4-(6-((1r,3R)-3-methoxycyclobutoxy)pyridin-3-yl)phenyl)-3-oxo-3,5,6,7,8,9-hexahydro-2H-6,9-epiminocyclohepta[c]pyridine-10-carboxamide], the IC50 was less than 500 nM.

For `O=C(Nc1cc(Cl)c(-c2ccc(OCC3CC3)nc2)cc1F)N1[C@H]2CC[C@@H]1c1n[nH]c(=O)cc1C2` [Compound 318, (6S,9R)-N-(5-Chloro-4-(6-(cyclopropylmethoxy)pyridin-3-yl)-2-fluorophenyl)-3-oxo-3,5,6,7,8,9-hexahydro-2H-6,9-epiminocyclohepta[c]pyridazine-10-carboxamide], the IC50 is less than 500 nM.

With `CC(C)COc1ccc(-c2cc(F)c(NC(=O)N3[C@H]4CC[C@@H]3c3n[nH]c(=O)cc3C4)cc2Cl)cn1` [Compound 319, (6S,9R)-N-(5-Chloro-2-fluoro-4-(6-isobutoxypyridin-3-yl)phenyl)-3-oxo-3,5,6,7,8,9-hexahydro-2H-6,9-epiminocyclohepta[c]pyridazine-10-carboxamide], the IC50 was less than 500 nM.

With `O=C(Nc1cc(Cl)c(-c2ccc(OCCC(F)(F)F)nc2)cc1F)N1[C@H]2CC[C@@H]1c1n[nH]c(=O)cc1C2` [Compound 320, (6S,9R)-N-(5-Chloro-2-fluoro-4-(6-(3,3,3-trifluoropropoxy)pyridin-3-yl)phenyl)-3-oxo-3,5,6,7,8,9-hexahydro-2H-6,9-epiminocyclohepta[c]pyridazine-10-carboxamide], the IC50 was less than 500 nM.

As to `CO[C@H]1C[C@@H](Oc2ccc(-c3cc(F)c(NC(=O)N4[C@H]5CC[C@@H]4c4c[nH]c(=O)cc4C5)cc3Cl)cn2)C1` [Compound 321, (6S,9R)-N-(5-Chloro-2-fluoro-4-(6-((1s,3S)-3-methoxycyclobutoxy)pyridin-3-yl)phenyl)-3-oxo-3,5,6,7,8,9-hexahydro-2H-6,9-epiminocyclohepta[c]pyridine-10-carboxamide], the IC50 is less than 500 nM.

Turning to `O=C(Nc1cc(Cl)c(-c2ccc(OCC(F)F)nc2)cc1F)N1[C@H]2CC[C@@H]1c1c[nH]c(=O)cc1C2` [Compound 322, (6S,9R)-N-(5-Chloro-4-(6-(2,2-difluoroethoxy)pyridin-3-yl)-2-fluorophenyl)-3-oxo-3,5,6,7,8,9-hexahydro-2H-6,9-epiminocyclohepta[c]pyridine-10-carboxamide], the IC50 was less than 500 nM.

With `O=C(Nc1cc(Cl)c(-c2cc(F)c3nonc3c2)cc1F)N1[C@H]2CC[C@@H]1c1n[nH]c(=O)cc1C2` [Compound 323, (6S,9R)-N-(5-Chloro-2-fluoro-4-(7-fluorobenzo[c][1,2,5]oxadiazol-5-yl)phenyl)-3-oxo-3,5,6,7,8,9-hexahydro-2H-6,9-epiminocyclohepta[c]pyridazine-10-carboxamide], the IC50 was less than 500 nM.

With `O=C(Nc1cc(Cl)c(-c2ccc(OC(F)F)nc2)cc1F)N1[C@H]2CC[C@@H]1c1ccnc(F)c1C2` [Compound 324, (5R,8S)-N-(5-Chloro-4-(6-(difluoromethoxy)pyridin-3-yl)-2-fluorophenyl)-1-fluoro-6,7,8,9-tetrahydro-5H-5,8-epiminocyclohepta[c]pyridine-10-carboxamide], the IC50 was less than 500 nM.

On to `O=C(Nc1cc(Cl)c(-c2ccc(OC(F)F)nc2)cc1F)N1[C@H]2CC[C@@H]1c1c[nH]c(=O)cc1C2` [Compound 325, (6S,9R)-N-(5-Chloro-4-(6-(difluoromethoxy)pyridin-3-yl)-2-fluorophenyl)-3-oxo-3,5,6,7,8,9-hexahydro-2H-6,9-epiminocyclohepta[c]pyridine-10-carboxamide], for which the IC50 is less than 500 nM.

Consider `O=C(Nc1cc(Cl)c(-c2cc3nonc3cc2F)cc1F)N1[C@H]2CC[C@@H]1c1n[nH]c(=O)cc1C2` [Compound 326, (6S,9R)-N-(5-Chloro-2-fluoro-4-(6-fluorobenzo[c][1,2,5]oxadiazol-5-yl)phenyl)-3-oxo-3,5,6,7,8,9-hexahydro-2H-6,9-epiminocyclohepta[c]pyridazine-10-carboxamide], for which the concentration for half-maximal inhibition (IC50) was less than 500 nM.

In the case of `O=C(Nc1cc(Cl)c(-c2ccc3nonc3c2F)cc1F)N1[C@H]2CC[C@@H]1c1n[nH]c(=O)cc1C2` [Compound 327, (6S,9R)-N-(5-Chloro-2-fluoro-4-(4-fluorobenzo[c][1,2,5]oxadiazol-5-yl)phenyl)-3-oxo-3,5,6,7,8,9-hexahydro-2H-6,9-epiminocyclohepta[c]pyridazine-10-carboxamide], the IC50 is less than 500 nM.

On to `O=C(Nc1cc(Cl)c(-c2cnc(OCC(F)(F)F)c(F)c2)cc1F)N1[C@H]2CC[C@@H]1c1n[nH]c(=O)cc1C2` [Compound 328, (6S,9R)-N-(5-Chloro-2-fluoro-4-(5-fluoro-6-(2,2,2-trifluoroethoxy)pyridin-3-yl)phenyl)-3-oxo-3,5,6,7,8,9-hexahydro-2H-6,9-epiminocyclohepta[c]pyridazine-10-carboxamide], for which the concentration for half-maximal inhibition (IC50) is less than 500 nM.

`O=C(Nc1cc(Cl)c(-c2ccc3nonc3c2)cc1F)N1[C@H]2CC[C@@H]1C(F)(F)c1c2ccnc1F` [Compound 329, (5S,8R)-N-(4-(Benzo[c][1,2,5]-oxadiazol-5-yl)-5-chloro-2-fluorophenyl)-1,9,9-trifluoro-6,7,8,9-tetrahydro-5H-5,8-epiminocyclohepta[c]pyridine-10-carboxamide]: the IC50 lay within 500 to 5000 nM.

Take `O=C(Nc1cc(Cl)c(-c2ccc3nonc3c2)cc1F)N1[C@@H]2CC[C@H]1C(F)(F)c1c2ccnc1F` [Compound 330, (5R,8S)-N-(4-(Benzo[c][1,2,5]-oxadiazol-5-yl)-5-chloro-2-fluorophenyl)-1,9,9-trifluoro-6,7,8,9-tetrahydro-5H-5,8-epiminocyclohepta[c]pyridine-10-carboxamide]: the IC50 was less than 500 nM.

Turning to `O=C(Nc1cc(Cl)c(-c2ccc(OC(C(F)F)C(F)F)nc2)cc1F)N1[C@H]2CC[C@@H]1c1n[nH]c(=O)cc1C2` [Compound 331, (6S,9R)-N-(5-Chloro-2-fluoro-4-(6-((1,1,3,3-tetrafluoropropan-2-yl)oxy)pyridin-3-yl)phenyl)-3-oxo-3,5,6,7,8,9-hexahydro-2H-6,9-epiminocyclohepta[c]pyridazine-10-carboxamide], the IC50 was less than 500 nM.

Regarding `O=C(Nc1cc(Cl)c(-c2ccc(OCCC(F)(F)F)nc2)cc1F)N1[C@H]2CC[C@@H]1c1c[nH]c(=O)cc1C2` [Compound 332, (6S,9R)-N-(5-Chloro-2-fluoro-4-(6-(3,3,3-trifluoropropoxy)pyridin-3-yl)phenyl)-3-oxo-3,5,6,7,8,9-hexahydro-2H-6,9-epiminocyclohepta[c]pyridine-10-carboxamide], the IC50 is less than 500 nM.

Take `O=C(Nc1cc(Cl)c(-c2cncc(C(F)F)c2)cc1F)N1[C@H]2CC[C@@H]1c1n[nH]c(=O)cc1C2` [Compound 333, (6S,9R)-N-(5-Chloro-4-(5-(difluoromethyl)pyridin-3-yl)-2-fluorophenyl)-3-oxo-3,5,6,7,8,9-hexahydro-2H-6,9-epiminocyclohepta[c]pyridazine-10-carboxamide]: the IC50 is less than 500 nM.

Take `O=C(Nc1cc(Cl)c(-c2ccc(OCC3CC3)nc2)cc1F)N1[C@H]2CC[C@@H]1c1c[nH]c(=O)cc1C2` [Compound 334, (6S,9R)-N-(5-Chloro-4-(6-(cyclopropylmethoxy)pyridin-3-yl)-2-fluorophenyl)-3-oxo-3,5,6,7,8,9-hexahydro-2H-6,9-epiminocyclohepta[c]pyridine-10-carboxamide]: the IC50 is less than 500 nM.

Take `CC(C)COc1ccc(-c2cc(F)c(NC(=O)N3[C@H]4CC[C@@H]3c3c[nH]c(=O)cc3C4)cc2Cl)cn1` [Compound 335, (6S,9R)-N-(5-Chloro-2-fluoro-4-(6-isobutoxypyridin-3-yl)phenyl)-3-oxo-3,5,6,7,8,9-hexahydro-2H-6,9-epiminocyclohepta[c]pyridine-10-carboxamide]: the IC50 is less than 500 nM.

Take `O=C(Nc1cc(Cl)c(-c2ccc(OC3CCCC3)nc2)cc1F)N1[C@H]2CC[C@@H]1c1n[nH]c(=O)cc1C2` [Compound 336, (6S,9R)-N-(5-Chloro-4-(6-(cyclopentyloxy)pyridin-3-yl)-2-fluorophenyl)-3-oxo-3,5,6,7,8,9-hexahydro-2H-6,9-epiminocyclohepta[c]pyridazine-10-carboxamide]: the IC50 is less than 500 nM.
